# Assays:
# [1] = system: Listeria monocytogenes; assay: Bactericidal activity against Listeria monocytogenes NCTC 7973 incubated for 24 hrs followed by serial sub-cultivation and measured after 24 hrs by microdilution method; assay type: functional
# [2] = system: Penicillium ochrochloron; assay: Antifungal activity against Penicillium ochrochloron ATCC 9112 after 72 hrs by serial dilution method; assay type: functional; conditions: ATCC 9112, 72 h
# [3] = system: Escherichia coli; assay: Bactericidal activity against Escherichia coli ATCC 35210 incubated for 24 hrs followed by serial sub-cultivation and measured after 24 hrs by microdilution method; assay type: functional
# [4] = system: Trichoderma viride; assay: Antifungal activity against Trichoderma viride IAM 5061 after 72 hrs by serial dilution method; assay type: functional; conditions: IAM 5061, 72 h
# [5] = system: Micrococcus flavus; assay: Bactericidal activity against Micrococcus flavus ATCC 10240 incubated for 24 hrs followed by serial sub-cultivation and measured after 24 hrs by microdilution method; assay type: functional
# [6] = system: Escherichia coli; assay: Antibacterial activity against Escherichia coli ATCC 35210 after 24 hrs by microdilution method; assay type: functional; conditions: ATCC 35210, 24 h
# [7] = system: Candida albicans; assay: Fungicidal activity against Candida albicans incubated for 72 hrs followed by serial sub-cultivation for 72 hrs and measured after 72 hrs by serial dilution method; assay type: functional
# [8] = system: Aspergillus fumigatus; assay: Antifungal activity against Aspergillus fumigatus after 72 hrs by serial dilution method; assay type: functional
# [9] = system: Trichoderma viride; assay: Fungicidal activity against Trichoderma viride IAM 5061 incubated for 72 hrs followed by serial sub-cultivation for 72 hrs and measured after 72 hrs by serial dilution method; assay type: functional
# [10] = system: Salmonella typhimurium; assay: Antibacterial activity against Salmonella typhimurium ATCC 13311 after 24 hrs by microdilution method; assay type: functional, Salmonella enterica subsp. enterica serovar Typhimurium; conditions: Salmonella enterica, ATCC 13311, 24 h
# [11] = system: Staphylococcus aureus; assay: Antibacterial activity against Staphylococcus aureus ATCC 6538 after 24 hrs by microdilution method; assay type: functional; conditions: ATCC 6538, 24 h
# [12] = system: Micrococcus flavus; assay: Antibacterial activity against Micrococcus flavus ATCC 10240 after 24 hrs by microdilution method; assay type: functional; conditions: ATCC 10240, 24 h
# [13] = system: Staphylococcus aureus; assay: Bactericidal activity against Staphylococcus aureus ATCC 6538 incubated for 24 hrs followed by serial sub-cultivation and measured after 24 hrs by microdilution method; assay type: functional
# [14] = system: Enterobacter cloacae; assay: Bactericidal activity against Enterobacter cloacae incubated for 24 hrs followed by serial sub-cultivation and measured after 24 hrs by microdilution method; assay type: functional
# [15] = system: Aspergillus niger; assay: Fungicidal activity against Aspergillus niger ATCC 6275 incubated for 72 hrs followed by serial sub-cultivation for 72 hrs and measured after 72 hrs by serial dilution method; assay type: functional
# [16] = system: Aspergillus ochraceus; assay: Fungicidal activity against Aspergillus ochraceus ATCC 12066 incubated for 72 hrs followed by serial sub-cultivation for 72 hrs and measured after 72 hrs by serial dilution method; assay type: functional
# [17] = system: Talaromyces funiculosus; assay: Antifungal activity against Penicillium funiculosum ATCC 36839 after 72 hrs by serial dilution method; assay type: functional; conditions: ATCC 36839, 72 h
# [18] = system: Candida albicans; assay: Antifungal activity against Candida albicans after 72 hrs by serial dilution method; assay type: functional
# [19] = system: Enterobacter cloacae; assay: Antibacterial activity against Enterobacter cloacae after 24 hrs by microdilution method; assay type: functional
# [20] = system: Pseudomonas aeruginosa; assay: Antibacterial activity against Pseudomonas aeruginosa ATCC 27853 after 24 hrs by microdilution method; assay type: functional; conditions: ATCC 27853, 24 h
# [21] = system: Penicillium ochrochloron; assay: Fungicidal activity against Penicillium ochrochloron ATCC 9112 incubated for 72 hrs followed by serial sub-cultivation for 72 hrs and measured after 72 hrs by serial dilution method; assay type: functional
# [22] = system: Aspergillus ochraceus; assay: Antifungal activity against Aspergillus ochraceus ATCC 12066 after 72 hrs by serial dilution method; assay type: functional; conditions: ATCC 12066, 72 h
# [23] = system: Talaromyces funiculosus; assay: Fungicidal activity against Penicillium funiculosum ATCC 36839 incubated for 72 hrs followed by serial sub-cultivation for 72 hrs and measured after 72 hrs by serial dilution method; assay type: functional
# [24] = system: Bacillus cereus; assay: Bactericidal activity against Bacillus cereus incubated for 24 hrs followed by serial sub-cultivation and measured after 24 hrs by microdilution method; assay type: functional
# [25] = system: Aspergillus fumigatus; assay: Fungicidal activity against Aspergillus fumigatus incubated for 72 hrs followed by serial sub-cultivation for 72 hrs and measured after 72 hrs by serial dilution method; assay type: functional
# [26] = system: Listeria monocytogenes; assay: Antibacterial activity against Listeria monocytogenes NCTC 7973 after 24 hrs by microdilution method; assay type: functional; conditions: NCTC 7973, 24 h
# [27] = system: Aspergillus niger; assay: Antifungal activity against Aspergillus niger ATCC 6275 after 72 hrs by serial dilution method; assay type: functional; conditions: ATCC 6275, 72 h
# [28] = system: Bacillus cereus; assay: Antibacterial activity against Bacillus cereus after 24 hrs by microdilution method; assay type: functional
# [29] = system: Aspergillus versicolor; assay: Antifungal activity against Aspergillus versicolor ATCC 11730 after 72 hrs by serial dilution method; assay type: functional; conditions: ATCC 11730, 72 h
# [30] = system: Salmonella typhimurium; assay: Bactericidal activity against Salmonella typhimurium ATCC 13311 incubated for 24 hrs followed by serial sub-cultivation and measured after 24 hrs by microdilution method; assay type: functional, Salmonella enterica subsp. enterica serovar Typhimurium
# [31] = system: Pseudomonas aeruginosa; assay: Bactericidal activity against Pseudomonas aeruginosa ATCC 27853 incubated for 24 hrs followed by serial sub-cultivation and measured after 24 hrs by microdilution method; assay type: functional
# [32] = system: Aspergillus versicolor; assay: Fungicidal activity against Aspergillus versicolor ATCC 11730 incubated for 72 hrs followed by serial sub-cultivation for 72 hrs and measured after 72 hrs by serial dilution method; assay type: functional
SMILES,MBC99.5 [1] [×10⁻² umol/ml],MIC [2] [µM],MBC99.5 [3] [×10⁻² umol/ml],MIC [4] [µM],MBC99.5 [5] [×10⁻² umol/ml],MIC [6] [µM],MFC99.5 [7] [×10⁻² umol/ml],MIC [8] [µM],MFC99.5 [9] [×10⁻² umol/ml],MIC [10] [µM],MIC [11] [µM],MIC [12] [µM],MBC99.5 [13] [×10⁻² umol/ml],MBC99.5 [14] [×10⁻² umol/ml],MFC99.5 [15] [×10⁻² umol/ml],MFC99.5 [16] [×10⁻² umol/ml],MIC [17] [µM],MIC [18] [µM],MIC [19] [µM],MIC [20] [µM],further results
O=C(N/N=C/c1c(F)cccc1Cl)c1nsc2ccccc12,48,60,24,240,24,120,30,240,48,60,60,120,12,12,12,12,30,240,60,240,MFC99.5 [21]: 12 ×10⁻² umol/ml; MIC [22]: 60 µM; MFC99.5 [23]: 6 ×10⁻² umol/ml; MBC99.5 [24]: 24 ×10⁻² umol/ml; MFC99.5 [25]: 30 ×10⁻² umol/ml; MIC [26]: 240 µM; MIC [27]: 60 µM; MIC [28]: 120 µM; MIC [29]: 60 µM; MBC99.5 [30]: 12 ×10⁻² umol/ml; MBC99.5 [31]: 48 ×10⁻² umol/ml; MFC99.5 [32]: 12 ×10⁻² umol/ml
O=C(N/N=C/c1c(F)cccc1F)c1nsc2ccccc12,50.4,126,50.4,126,50.4,252,50.4,15.8,25.2,31.5,126,252,25.2,25.2,50.4,12.6,31.5,252,63,252,MFC99.5 [21]: 25.2 ×10⁻² umol/ml; MIC [22]: 15.8 µM; MFC99.5 [23]: 12.6 ×10⁻² umol/ml; MBC99.5 [24]: 25.2 ×10⁻² umol/ml; MFC99.5 [25]: 25.2 ×10⁻² umol/ml; MIC [26]: 252 µM; MIC [27]: 252 µM; MIC [28]: 126 µM; MIC [29]: 15.8 µM; MBC99.5 [30]: 6.3 ×10⁻² umol/ml; MBC99.5 [31]: 50.4 ×10⁻² umol/ml; MFC99.5 [32]: 12.6 ×10⁻² umol/ml
CC1(C)S[C@@H]2[C@H](NC(=O)[C@H](N)c3ccccc3)C(=O)N2[C@H]1C(=O)O [AMPICILLIN],74.4,–,49.2,–,37.2,372,–,–,–,248,248,248,37.2,37.2,–,–,–,–,248,744,MBC99.5 [24]: 37.2 ×10⁻² umol/ml; MIC [26]: 372 µM; MIC [28]: 248 µM; MBC99.5 [30]: 49.2 ×10⁻² umol/ml; MBC99.5 [31]: 124 ×10⁻² umol/ml
c1ccc(-c2ccc(C(c3ccccc3)n3ccnc3)cc2)cc1 (stereo not drawn) [BIFONAZOLE],–,640,–,640,–,–,64,480,80,–,–,–,–,–,64,80,640,320,–,–,MFC99.5 [21]: 80.5 ×10⁻² umol/ml; MIC [22]: 480 µM; MFC99.5 [23]: 80 ×10⁻² umol/ml; MFC99.5 [25]: 64 ×10⁻² umol/ml; MIC [27]: 480 µM; MIC [29]: 320 µM; MFC99.5 [32]: 64 ×10⁻² umol/ml
CC(=O)N1CCN(c2ccc(OCC3COC(Cn4ccnc4)(c4ccc(Cl)cc4Cl)O3)cc2)CC1 (stereo not drawn) [KETOCONAZOLE],–,1900,–,1900,–,–,56,380,285,–,–,–,–,–,95,38,380,380,–,–,MFC99.5 [21]: 285 ×10⁻² umol/ml; MIC [22]: 280 µM; MFC99.5 [23]: 95 ×10⁻² umol/ml; MFC99.5 [25]: 95 ×10⁻² umol/ml; MIC [27]: 380 µM; MIC [29]: 380 µM; MFC99.5 [32]: 95 ×10⁻² umol/ml
CN[C@@H]1[C@H](O[C@H]2[C@H](O[C@H]3[C@H](O)[C@@H](O)[C@H](N=C(N)N)[C@@H](O)[C@@H]3N=C(N)N)O[C@@H](C)[C@]2(O)C=O)O[C@@H](CO)[C@H](O)[C@H]1O [STREPTOMYCIN],51.6,–,34.4,–,17.2,172,–,–,–,172,172,86,34.4,8.6,–,–,–,–,43,172,MBC99.5 [24]: 8.6 ×10⁻² umol/ml; MIC [26]: 258 µM; MIC [28]: 43 µM; MBC99.5 [30]: 34.4 ×10⁻² umol/ml; MBC99.5 [31]: 34.4 ×10⁻² umol/ml

# — ChEMBL document CHEMBL4257449, “New N-(2-phenyl-4-oxo-1,3-thiazolidin-3-yl)-1,2-benzothiazole-3-carboxamides and acetamides as antimicrobial agents” (2017)
